Molecules are shown by their SMILES. Results filed as inconclusive are left out.

Here are results for 73 compounds from PubChem BioAssay AID449762 (Southern Research Specialized Biocontainment Screening …, 2010).

This test relates to M. tuberculosis H37Rv growth inhibition, 7H9 media. As to the kind of experiment: M. tuberculosis growth inhibition, HTS (AID 449762).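 For all read-outs here: bacterial growth assessed after seven days of incubation.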 The following applies: for IC90: measured here: IC90 growth inhibition.

A word on the IC50: it is the concentration that inhibits the measured activity by half. Usually IC90 stands for the concentration at which the effect reaches the 90% level. With `CCOc1ccccc1NC(=O)C12CC3CC(C1)CC(c1ccc(C)cc1)(C3)C2`, the concentration for half-maximal inhibition (IC50) is 30.1 µM and the IC90 is more than 100 µM.

As to `Cc1ccc(-c2ccnc(=S)[nH]2)cc1`, the half-inhibitory concentration (IC50) is 44.9 µM and the concentration for an effect of 90% (IC90) was more than 100 µM.

Consider `COc1cccc(NC(=O)C2CCN(Cc3cnn(-c4ccccc4)c3-n3cccc3)CC2)c1`, for which the IC50 was 48.4 µM and the concentration for an effect of 90% (IC90) worked out at 56.2 µM.

Consider `N[C@@H](CCl)C(=O)O`, for which the IC50 was 39.4 µM and the 90% effect concentration (IC90) worked out at 58.9 µM.

With `CCOc1cccc(C=Nc2cc(C)cc(C)c2O)c1O`, the 50% inhibitory concentration (IC50) is 13.6 µM and the IC90 was found to be 29.2 µM.

For `CC1Cc2ccccc2N1C(=S)NC(=O)c1ccc(Cl)cc1Cl` (stereo not drawn), the 50% inhibitory concentration (IC50) was 7.13 µM and the IC90 was more than 100 µM.

Take `O=C(Nc1nc2ccc(SC(F)F)cc2s1)c1ccc(NS(=O)(=O)c2ccc(F)c(F)c2)cc1`: the concentration for half-maximal inhibition (IC50) was 16.5 µM and the IC90 came to 24.7 µM.

Turning to `C=C1c2c(Cl)ccc(O)c2C(O)=C2C(=O)[C@]3(O)C(O)=C(C(N)=O)C(=O)[C@@H](N(C)C)[C@@H]3[C@@H](O)C12` (stereo partly drawn), the IC50 is 1.06 µM and the 90% effect concentration (IC90) turned out to be 4.88 µM.

For `Nc1c2c(nc3ccn(Cc4ccccc4)c(=O)c13)CCC2`, the IC50 is 13.7 µM and the IC90 was 33.6 µM.

Consider `CCOC(=O)c1nnc(-c2ccccc2)nc1Sc1ccccc1Cl`, for which the IC50 was 20.7 µM and the IC90 turned out to be 49.2 µM.

`O=C(C[n+]1ccc(C(=O)c2ccccc2)cc1)Nc1ccc(C(F)(F)F)cc1`: the IC50 is 21.5 µM and the concentration for an effect of 90% (IC90) was determined as 23.7 µM.

`Cc1csc(NC(=O)CCCC(=O)O)c1-c1nc2ccccc2s1`: the IC50 was 35.8 µM and the 90% effect concentration (IC90) is 79.6 µM.

Consider `CCOc1ccc(-c2cc(CCCC(=O)NCCC(C)C)no2)cc1`, for which the concentration for half-maximal inhibition (IC50) is 6.53 µM and the IC90 was found to be 14.3 µM.

For the compound `CCOC(=O)/C(=N/Nc1ccc(OC)cc1)N1CCCc2ccccc21`, the half-inhibitory concentration (IC50) was 78.1 µM and the IC90 was more than 100 µM.

As to `COc1cccc2c1C(CO)N1C(C#N)C3CC(C(=O)O)C(C1C2)N3C` (stereo not drawn), the IC50 is 2.69 µM and the IC90 was determined as 2.98 µM.

As for `Cc1cc(C)c(C)c(N=Nc2nc3ccccc3n2C)c1C`, the IC50 was 6.16 µM and the 90% effect concentration (IC90) stood at 6.93 µM.

In the case of `Cc1nn(-c2nc3ccccc3[nH]2)c(N)c1-c1ccc(Cl)cc1`, the IC50 was 0.21 µM and the 90% effect concentration (IC90) amounted to 2.6 µM.

As to `COc1cccc(-c2nnc(NC(=O)c3ccc(S(=O)(=O)N4CCOCC4)cc3)o2)c1`, the 50% inhibitory concentration (IC50) was 23.6 µM and the 90% effect concentration (IC90) worked out at 26.7 µM.

Take `COC(=O)c1cc(/C=C/c2ccccc2)on1`: the 50% inhibitory concentration (IC50) is 16.9 µM and the IC90 is more than 100 µM.

With `O=c1c(-c2cnn(-c3ccccc3)c2)coc2cc(O)ccc12`, the half-maximal inhibitory concentration (IC50) was 12.1 µM and the 90% effect concentration (IC90) was more than 100 µM.

As to `CCCCCCCNC(=O)c1ccc(N2CCC3(CC2)OCCO3)c([N+](=O)[O-])c1`, the half-inhibitory concentration (IC50) was 37.9 µM and the IC90 worked out at 47.2 µM.

In the case of `Oc1ccc(C[C@H]2CNCCN2CCCCC2CCCCC2)cc1`, the half-maximal inhibitory concentration (IC50) was 31.5 µM and the 90% effect concentration (IC90) turned out to be 59.2 µM.

For `COc1ccc2nc(NC(=O)C3CCCN(S(=O)(=O)c4cccs4)C3)sc2c1` (stereo not drawn), the half-maximal inhibitory concentration (IC50) was 18 µM and the concentration for an effect of 90% (IC90) came out at 27.6 µM.

With `CCOC(=O)COc1ccc(S(=O)(=O)NCCC2=CCCCC2)cc1`, the half-inhibitory concentration (IC50) is 13.6 µM and the IC90 came to 27.6 µM.

For `CC1(C)Cc2c(sc(NC(=O)c3ccc(C(=O)c4ccccc4)cc3)c2C(N)=O)C(C)(C)N1`, the IC50 was 22.5 µM and the concentration for an effect of 90% (IC90) was more than 100 µM.

On to `Cc1cccc(/C=C/C(=O)c2ccc([N+](=O)[O-])o2)c1`, for which the IC50 is less than 0.2 µM and the concentration for an effect of 90% (IC90) is less than 0.2 µM.

As to `CCC(=O)c1ccc(OCC(=O)OCC(=O)c2cc(C)n(C3CC3)c2C)cc1`, the concentration for half-maximal inhibition (IC50) was 2.41 µM and the IC90 was 74.8 µM.

`CCOc1cc(/C=C\[N+](=O)[O-])ccc1OCC(=O)Nc1ccccc1C`: the IC50 is 6.93 µM and the concentration for an effect of 90% (IC90) worked out at 33.8 µM.

For the compound `COC(=O)C1CC(=O)N(c2ccc(OCc3ccccc3Cl)cc2)C1` (stereo not drawn), the IC50 was 0.52 µM and the concentration for an effect of 90% (IC90) was 3.52 µM.

On to `N#Cc1nc(-c2ccc(OCc3ccccc3)cc2)oc1NCCCn1ccnc1`, for which the IC50 was 26.7 µM and the IC90 amounted to 35.5 µM.

Take `Cc1cc(/C=N/n2cnnc2)c(C)n1-c1ccc(OCc2ccc(Cl)cc2Cl)cc1`: the IC50 is 7.25 µM and the IC90 was found to be 15.8 µM.

For `CCn1cnc2sc(C(=O)Oc3ccc(Br)cc3)c(C)c2c1=O`, the IC50 is 3.2 µM and the IC90 worked out at 11.3 µM.

Consider `CNc1nc(-c2ccccn2)nnc1-c1ccccc1`, for which the IC50 was 12.1 µM and the IC90 was found to be 19 µM.

For the compound `COC(=O)CCn1c(C)cc(C(=O)COc2ccccc2C(N)=O)c1C`, the half-maximal inhibitory concentration (IC50) was 10.2 µM and the IC90 came to 15.8 µM.

Turning to `COC(=O)c1ccc2c(c1O)C(=O)c1ccccc1C2=O`, the half-maximal inhibitory concentration (IC50) was 65.4 µM and the IC90 came to 77.9 µM.

For the compound `CCOc1ccc(CN(C)CC(O)COC(c2ccc(OC)cc2)c2ccc(OC)cc2)cc1` (stereo not drawn), the IC50 is 10.5 µM and the concentration for an effect of 90% (IC90) stood at 13.4 µM.

`COc1ccc(NC(=O)CN(C)CC(=O)Nc2sc3c(c2C(N)=O)CCC3)cc1`: the IC50 is 49.9 µM and the IC90 came out at 98 µM.

In the case of `O=C(CN1CCN(c2nc(-c3ccc(F)cc3)cs2)CC1)NCc1ccc2c(c1)OCO2`, the IC50 is 42.6 µM and the IC90 stood at 55.8 µM.

With `CCOC(=O)C(C)Oc1ccc(OCc2ccccc2)cc1` (stereo not drawn), the concentration for half-maximal inhibition (IC50) was 4.2 µM and the concentration for an effect of 90% (IC90) was 10.9 µM.

Consider `NC(=S)N=Nc1ccc(NN=C(N)N)cc1`, for which the half-maximal inhibitory concentration (IC50) was 16.9 µM and the concentration for an effect of 90% (IC90) is 24.7 µM.

As for `Nn1c(SCc2ccccc2)nc2ccccc21`, the half-inhibitory concentration (IC50) is 28 µM and the IC90 was more than 100 µM.

Turning to `Cc1ccc2c(c1)c1ncnc(N3CCc4ccccc4C3)c1n2C`, the IC50 is 81.1 µM and the IC90 was more than 100 µM.

`COc1ccc(-c2c(-c3cc(OC)cc(OC)c3)n(C)c3ccc(-c4ccn[nH]4)cc23)cc1` returned an IC90 of more than 100 µM.

Regarding `CCCCCCN=C1CC(C)(C)CC(=O)/C1=C(/O)CCC`, the IC50 is 43 µM and the concentration for an effect of 90% (IC90) is more than 100 µM.

Regarding `CCN(CC)C(=O)c1cc([N+](=O)[O-])cc2c1-c1ccc([N+](=O)[O-])cc1C2=C(C#N)C#N`, the IC50 is 21.3 µM and the IC90 amounted to 23.8 µM.

On to `COC(=O)[C@@H](NC(=O)c1cc(COc2cncc(Cl)c2)on1)c1ccccc1`, for which the IC50 was 1.19 µM and the IC90 was determined as 3.97 µM.

With `O=C(O)c1[nH]c(=O)[nH]c(=O)c1F`, the IC50 is 4.58 µM and the IC90 came to 14.2 µM.

In the case of `O=[N+]([O-])c1c(C(Cl)Cl)nn(-c2ccc(Cl)cc2)c1N1CCCCC1`, the 50% inhibitory concentration (IC50) was 15.6 µM and the concentration for an effect of 90% (IC90) came out at 19.4 µM.

Consider `CCCCS/C(N)=N/N=C/c1cc(C)ccc1O`, for which the concentration for half-maximal inhibition (IC50) was 12.3 µM and the 90% effect concentration (IC90) stood at 13.9 µM.

As to `Cc1cccc(N2CCN(CC(=O)Nc3nccs3)CC2)c1C`, the IC50 is 16 µM and the IC90 turned out to be 58.5 µM.

As to `CC(Oc1cc2oc(=O)c3c(c2cc1Cl)CCCC3)C(=O)NCc1ccccn1` (stereo not drawn), the IC50 is 7.47 µM and the concentration for an effect of 90% (IC90) is more than 100 µM.

As for `C/C(=N\Nc1ccc(S(=O)(=O)N2CCCCC2)cn1)c1cccc(Br)c1`, the half-inhibitory concentration (IC50) is 32.7 µM and the IC90 was more than 100 µM.

`CCOC(=O)c1ccccc1NC(=O)COc1coc(CN2CCc3ccccc32)cc1=O`: the IC50 is 17.9 µM and the IC90 turned out to be 38.2 µM.

On to `O=C(Nc1ccc([N+](=O)[O-])cc1)Nc1ccc(OC(F)F)c(Cl)c1`, for which the IC50 is 2.83 µM and the IC90 was determined as 4.03 µM.

As to `O=c1[nH]c(CSc2cccc[n+]2[O-])nc2ccccc12`, the IC50 is 96.4 µM and the IC90 is more than 100 µM.

Turning to `CCOC(=O)c1ccc(NC(=O)CCc2nc(-c3ccc(Cl)cc3)no2)cc1`, the concentration for half-maximal inhibition (IC50) is 27.4 µM and the 90% effect concentration (IC90) is more than 100 µM.

With `O=C(N/N=C(\c1ccccc1)c1ccccn1)c1ccccc1Cl`, the IC50 is 3.65 µM and the IC90 worked out at 22.1 µM.

With `CCCCCCCNC(=O)C1(CC2CC(c3cccc(Br)c3)=NO2)CCNCC1` (stereo not drawn), the half-inhibitory concentration (IC50) is 42 µM and the IC90 amounted to 53.1 µM.

Consider `Cc1cccc(N2CCN(CCCNC(=O)c3ccc(NC(=O)C4=CSCCO4)cc3)CC2C)c1` (stereo not drawn), for which the IC50 is 19.7 µM and the concentration for an effect of 90% (IC90) came to 29.2 µM.

With `Cc1noc(C)c1COc1ccc(C(=O)OCC(=O)NC23CC4CC(CC(C4)C2)C3)cc1`, the IC50 was 8.33 µM and the IC90 was 24.5 µM.

Turning to `CSc1ccc(C(=O)C2CCCN(C(=O)c3ccc4c(c3)no[n+]4[O-])C2)cc1` (stereo not drawn), the IC50 is 0.54 µM and the concentration for an effect of 90% (IC90) was determined as 1.57 µM.

For `CCC1(c2ccccc2)ON(c2c(Br)cccc2Br)C1=O` (stereo not drawn), the IC50 was 16.9 µM and the concentration for an effect of 90% (IC90) worked out at 50.4 µM.

Take `O=C(CSc1nnnn1-c1ccc2c(c1)OCCO2)OC1CCCCC1`: the 50% inhibitory concentration (IC50) is 11.9 µM and the IC90 is 21.7 µM.

In the case of `O=C(N/N=C/c1c(F)c(F)c(F)c(F)c1F)c1cccc(S(=O)(=O)N2CCOCC2)c1`, the IC90 is more than 100 µM.

On to `Clc1cccc(-c2cc3nc4c(c(NCc5ccco5)n3n2)CCCC4)c1`, for which the IC50 is 11 µM and the IC90 worked out at 17.4 µM.

Consider `CC/C(=C(\c1ccc(O)cc1)c1ccc(OCCN(C)C)cc1)c1ccccc1`, for which the IC50 is 22.5 µM and the IC90 stood at 35.4 µM.

As to `CS(=O)(=O)c1ccc([C@@H](O)[C@@H](CF)NC(=O)C(Cl)Cl)cc1`, the IC50 is 10.1 µM and the IC90 came out at 24.7 µM.

Turning to `Cc1nc2sccn2c1-c1nc(-c2cc3ccccc3o2)cs1`, the IC50 was 52.5 µM and the concentration for an effect of 90% (IC90) was found to be 90.7 µM.

Take `Cn1ccnc1C(=O)C1CCCN(Cc2cn[nH]c2-c2ccc(-c3ccccc3)cc2)C1` (stereo not drawn): the IC50 was 76 µM and the IC90 was 91.7 µM.

Regarding `O=[N+]([O-])c1ccc(CN2CCN(c3ccc(Cl)cc3)CC2)o1`, the 50% inhibitory concentration (IC50) is less than 0.2 µM and the 90% effect concentration (IC90) was less than 0.2 µM.

On to `Cc1c(C(=O)N(C)C)sc2nc(-c3ccccn3)[nH]c(=O)c12`, for which the IC50 was 5.89 µM and the IC90 worked out at 16.9 µM.

`O=C(O)Cc1c[nH]c2ccc(O)cc12` yielded a 90% effect concentration (IC90) of more than 100 µM.

Regarding `CCn1c(C)c(C)c2cc(C(=O)Nc3cccc(Cl)c3)ccc21`, the IC50 was 35 µM and the IC90 is more than 100 µM.
